Measurements published in ChEMBL document CHEMBL3627608, “Crystal structures of human RIP2 kinase catalytic domain complexed with ATP-competitive inhibitors: Foundations for understanding inhibitor selectivity” (Bioorg Med Chem, 2015).

Experiments:
[1] = target: Tyrosine-protein kinase Lyn (Homo sapiens) (UniProt P07948); assay: Inhibition of LYN B (unknown origin) at 10 uM after 120 mins P33 radiolabeled kinase activity assay
[2] = target: T1, Dual specificity tyrosine-phosphorylation-regulated kinase 2 (Homo sapiens) (UniProt Q92630); assay: Inhibition of DYRK2 (unknown origin) at 10 uM after 120 mins P33 radiolabeled kinase activity assay
T1 sequence (whole entry): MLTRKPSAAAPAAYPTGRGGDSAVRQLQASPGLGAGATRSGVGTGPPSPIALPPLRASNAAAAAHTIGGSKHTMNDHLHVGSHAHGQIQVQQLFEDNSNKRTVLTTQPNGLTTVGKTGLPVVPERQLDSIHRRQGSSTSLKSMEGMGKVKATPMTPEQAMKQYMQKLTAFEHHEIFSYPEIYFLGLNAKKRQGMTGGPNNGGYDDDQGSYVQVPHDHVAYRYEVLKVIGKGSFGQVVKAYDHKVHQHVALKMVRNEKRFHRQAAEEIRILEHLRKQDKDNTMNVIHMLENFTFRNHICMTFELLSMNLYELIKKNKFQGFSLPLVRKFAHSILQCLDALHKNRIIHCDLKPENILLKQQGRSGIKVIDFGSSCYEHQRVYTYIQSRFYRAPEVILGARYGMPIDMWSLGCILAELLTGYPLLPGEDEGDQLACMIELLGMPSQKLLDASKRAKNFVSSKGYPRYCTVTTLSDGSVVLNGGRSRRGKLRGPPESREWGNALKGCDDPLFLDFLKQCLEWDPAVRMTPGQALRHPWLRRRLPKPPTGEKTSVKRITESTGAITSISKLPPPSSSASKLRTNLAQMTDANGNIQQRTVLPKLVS

[3] = target: Serine/threonine-protein kinase pim-1 (Homo sapiens) (UniProt P11309); assay: Inhibition of PIM1 (unknown origin) at 10 uM after 120 mins P33 radiolabeled kinase activity assay
[4] = target: Vascular endothelial growth factor receptor 3 (Homo sapiens) (UniProt P35916); assay: Inhibition of FLT4 (unknown origin) at 10 uM after 120 mins P33 radiolabeled kinase activity assay
[5] = target: Tyrosine-protein kinase Fgr (Homo sapiens) (UniProt P09769); assay: Inhibition of FGR (unknown origin) at 10 uM after 120 mins P33 radiolabeled kinase activity assay
[6] = target: Ephrin type-A receptor 7 (Homo sapiens) (UniProt Q15375); assay: Inhibition of EPHA7 (unknown origin) at 10 uM after 120 mins P33 radiolabeled kinase activity assay
[7] = target: CDK3/Cyclin E (Homo sapiens) (UniProt P24864+Q00526); assay: Inhibition of CDK3/cyclin E (unknown origin) at 10 uM after 120 mins P33 radiolabeled kinase activity assay; type: protein-complex assay
[8] = target: Calcium/calmodulin-dependent protein kinase type 1G (Homo sapiens) (UniProt Q96NX5); assay: Inhibition of CAMK1gamma (unknown origin) at 10 uM after 120 mins P33 radiolabeled kinase activity assay
[9] = target: T2, Kinase suppressor of Ras 2 (Homo sapiens) (UniProt Q6VAB6); assay: Inhibition of KSR2 (unknown origin) at 10 uM after 120 mins P33 radiolabeled kinase activity assay
T2 sequence (whole entry): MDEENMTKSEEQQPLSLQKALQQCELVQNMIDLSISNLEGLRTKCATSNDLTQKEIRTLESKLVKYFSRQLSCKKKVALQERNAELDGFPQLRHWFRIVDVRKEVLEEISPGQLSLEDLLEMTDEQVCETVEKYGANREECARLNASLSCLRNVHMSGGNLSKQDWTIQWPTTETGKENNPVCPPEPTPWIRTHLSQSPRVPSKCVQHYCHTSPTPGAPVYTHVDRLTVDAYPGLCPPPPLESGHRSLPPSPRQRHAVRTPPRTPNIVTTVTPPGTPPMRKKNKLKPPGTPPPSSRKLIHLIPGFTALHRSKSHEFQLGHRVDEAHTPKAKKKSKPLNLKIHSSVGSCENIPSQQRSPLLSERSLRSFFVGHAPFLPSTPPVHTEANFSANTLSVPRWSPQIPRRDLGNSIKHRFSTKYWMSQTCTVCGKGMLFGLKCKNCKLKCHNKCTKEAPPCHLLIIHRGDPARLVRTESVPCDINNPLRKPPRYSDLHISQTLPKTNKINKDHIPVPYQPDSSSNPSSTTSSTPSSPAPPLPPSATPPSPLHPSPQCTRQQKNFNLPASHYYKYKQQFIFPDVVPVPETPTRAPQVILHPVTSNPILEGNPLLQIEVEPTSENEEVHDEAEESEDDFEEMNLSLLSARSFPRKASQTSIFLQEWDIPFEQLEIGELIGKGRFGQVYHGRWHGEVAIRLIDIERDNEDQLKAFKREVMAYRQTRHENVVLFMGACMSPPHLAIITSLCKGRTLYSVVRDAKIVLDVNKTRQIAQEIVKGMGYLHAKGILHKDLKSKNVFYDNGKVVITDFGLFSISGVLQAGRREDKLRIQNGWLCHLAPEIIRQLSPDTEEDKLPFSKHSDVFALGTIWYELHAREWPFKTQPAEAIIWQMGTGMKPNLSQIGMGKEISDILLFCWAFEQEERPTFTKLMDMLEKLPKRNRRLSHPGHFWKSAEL

[10] = target: T3, Homeodomain-interacting protein kinase 4 (Homo sapiens) (UniProt Q8NE63); assay: Inhibition of HIPK4 (unknown origin) at 10 uM after 120 mins P33 radiolabeled kinase activity assay
T3 sequence (whole entry): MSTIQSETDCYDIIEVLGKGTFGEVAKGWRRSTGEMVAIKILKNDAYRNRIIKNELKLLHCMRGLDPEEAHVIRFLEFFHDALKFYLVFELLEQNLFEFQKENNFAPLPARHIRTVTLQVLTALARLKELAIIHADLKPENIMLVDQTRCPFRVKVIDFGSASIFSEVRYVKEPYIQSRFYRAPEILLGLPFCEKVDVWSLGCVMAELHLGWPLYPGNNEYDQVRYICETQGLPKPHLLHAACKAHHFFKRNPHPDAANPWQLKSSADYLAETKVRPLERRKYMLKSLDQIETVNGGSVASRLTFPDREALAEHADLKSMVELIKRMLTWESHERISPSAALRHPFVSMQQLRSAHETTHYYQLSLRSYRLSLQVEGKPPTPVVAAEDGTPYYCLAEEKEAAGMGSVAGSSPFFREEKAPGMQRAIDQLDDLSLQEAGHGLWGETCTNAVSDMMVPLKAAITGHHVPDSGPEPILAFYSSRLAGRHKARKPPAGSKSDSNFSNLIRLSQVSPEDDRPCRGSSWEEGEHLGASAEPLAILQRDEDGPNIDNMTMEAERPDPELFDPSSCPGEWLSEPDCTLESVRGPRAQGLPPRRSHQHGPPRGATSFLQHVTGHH

Chain of Ephrin type-A receptor 7 (Homo sapiens) (Q15375 28-998 limits assumed): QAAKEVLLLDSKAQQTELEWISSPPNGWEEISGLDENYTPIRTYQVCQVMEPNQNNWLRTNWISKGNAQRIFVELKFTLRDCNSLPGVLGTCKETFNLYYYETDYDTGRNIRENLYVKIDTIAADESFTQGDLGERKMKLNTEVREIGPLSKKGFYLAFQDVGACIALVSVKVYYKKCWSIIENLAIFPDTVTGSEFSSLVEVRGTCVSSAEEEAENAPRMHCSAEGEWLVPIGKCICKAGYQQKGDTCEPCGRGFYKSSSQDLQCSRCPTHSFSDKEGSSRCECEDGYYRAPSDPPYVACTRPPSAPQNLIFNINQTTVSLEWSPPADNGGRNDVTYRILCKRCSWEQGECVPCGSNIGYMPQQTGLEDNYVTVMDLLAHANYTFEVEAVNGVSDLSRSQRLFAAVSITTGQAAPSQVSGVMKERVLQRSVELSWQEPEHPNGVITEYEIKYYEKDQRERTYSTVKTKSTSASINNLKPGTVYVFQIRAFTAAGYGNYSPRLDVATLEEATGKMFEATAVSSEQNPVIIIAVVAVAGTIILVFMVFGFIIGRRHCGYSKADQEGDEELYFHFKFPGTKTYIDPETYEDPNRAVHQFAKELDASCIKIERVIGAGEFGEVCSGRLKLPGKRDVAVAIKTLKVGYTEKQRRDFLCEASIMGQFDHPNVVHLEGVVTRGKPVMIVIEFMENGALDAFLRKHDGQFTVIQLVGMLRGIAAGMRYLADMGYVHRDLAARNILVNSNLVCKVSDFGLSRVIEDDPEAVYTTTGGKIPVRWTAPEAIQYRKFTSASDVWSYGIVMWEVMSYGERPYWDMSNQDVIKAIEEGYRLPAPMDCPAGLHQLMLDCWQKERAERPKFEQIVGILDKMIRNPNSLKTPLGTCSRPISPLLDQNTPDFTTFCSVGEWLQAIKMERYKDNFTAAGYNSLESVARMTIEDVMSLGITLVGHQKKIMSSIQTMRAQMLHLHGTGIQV
Chain of Serine/threonine-protein kinase pim-1 (Homo sapiens) (P11309 whole entry, looked up): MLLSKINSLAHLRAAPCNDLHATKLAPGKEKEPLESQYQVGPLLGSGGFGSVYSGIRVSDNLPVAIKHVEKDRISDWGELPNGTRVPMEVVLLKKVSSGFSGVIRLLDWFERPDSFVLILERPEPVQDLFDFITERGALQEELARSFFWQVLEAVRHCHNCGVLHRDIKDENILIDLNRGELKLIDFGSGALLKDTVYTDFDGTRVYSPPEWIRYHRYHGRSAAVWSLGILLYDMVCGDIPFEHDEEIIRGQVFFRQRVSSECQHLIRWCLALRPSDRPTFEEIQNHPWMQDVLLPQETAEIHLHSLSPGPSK
Chain of Tyrosine-protein kinase Lyn (Homo sapiens) (P07948 2-512 limits assumed): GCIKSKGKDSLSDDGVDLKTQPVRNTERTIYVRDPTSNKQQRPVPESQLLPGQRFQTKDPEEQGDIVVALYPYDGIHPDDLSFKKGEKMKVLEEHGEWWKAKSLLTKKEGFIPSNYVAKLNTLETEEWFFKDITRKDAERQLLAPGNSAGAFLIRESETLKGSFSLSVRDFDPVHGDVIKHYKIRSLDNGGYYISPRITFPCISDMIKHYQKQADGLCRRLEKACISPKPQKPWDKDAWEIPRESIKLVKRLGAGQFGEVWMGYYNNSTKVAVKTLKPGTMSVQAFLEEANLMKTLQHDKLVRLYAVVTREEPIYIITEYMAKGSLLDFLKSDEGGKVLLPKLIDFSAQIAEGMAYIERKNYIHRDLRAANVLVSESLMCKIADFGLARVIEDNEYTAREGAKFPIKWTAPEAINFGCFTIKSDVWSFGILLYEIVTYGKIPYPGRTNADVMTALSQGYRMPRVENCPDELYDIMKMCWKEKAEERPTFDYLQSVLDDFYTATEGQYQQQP
Chain of Vascular endothelial growth factor receptor 3 (Homo sapiens) (P35916 whole entry): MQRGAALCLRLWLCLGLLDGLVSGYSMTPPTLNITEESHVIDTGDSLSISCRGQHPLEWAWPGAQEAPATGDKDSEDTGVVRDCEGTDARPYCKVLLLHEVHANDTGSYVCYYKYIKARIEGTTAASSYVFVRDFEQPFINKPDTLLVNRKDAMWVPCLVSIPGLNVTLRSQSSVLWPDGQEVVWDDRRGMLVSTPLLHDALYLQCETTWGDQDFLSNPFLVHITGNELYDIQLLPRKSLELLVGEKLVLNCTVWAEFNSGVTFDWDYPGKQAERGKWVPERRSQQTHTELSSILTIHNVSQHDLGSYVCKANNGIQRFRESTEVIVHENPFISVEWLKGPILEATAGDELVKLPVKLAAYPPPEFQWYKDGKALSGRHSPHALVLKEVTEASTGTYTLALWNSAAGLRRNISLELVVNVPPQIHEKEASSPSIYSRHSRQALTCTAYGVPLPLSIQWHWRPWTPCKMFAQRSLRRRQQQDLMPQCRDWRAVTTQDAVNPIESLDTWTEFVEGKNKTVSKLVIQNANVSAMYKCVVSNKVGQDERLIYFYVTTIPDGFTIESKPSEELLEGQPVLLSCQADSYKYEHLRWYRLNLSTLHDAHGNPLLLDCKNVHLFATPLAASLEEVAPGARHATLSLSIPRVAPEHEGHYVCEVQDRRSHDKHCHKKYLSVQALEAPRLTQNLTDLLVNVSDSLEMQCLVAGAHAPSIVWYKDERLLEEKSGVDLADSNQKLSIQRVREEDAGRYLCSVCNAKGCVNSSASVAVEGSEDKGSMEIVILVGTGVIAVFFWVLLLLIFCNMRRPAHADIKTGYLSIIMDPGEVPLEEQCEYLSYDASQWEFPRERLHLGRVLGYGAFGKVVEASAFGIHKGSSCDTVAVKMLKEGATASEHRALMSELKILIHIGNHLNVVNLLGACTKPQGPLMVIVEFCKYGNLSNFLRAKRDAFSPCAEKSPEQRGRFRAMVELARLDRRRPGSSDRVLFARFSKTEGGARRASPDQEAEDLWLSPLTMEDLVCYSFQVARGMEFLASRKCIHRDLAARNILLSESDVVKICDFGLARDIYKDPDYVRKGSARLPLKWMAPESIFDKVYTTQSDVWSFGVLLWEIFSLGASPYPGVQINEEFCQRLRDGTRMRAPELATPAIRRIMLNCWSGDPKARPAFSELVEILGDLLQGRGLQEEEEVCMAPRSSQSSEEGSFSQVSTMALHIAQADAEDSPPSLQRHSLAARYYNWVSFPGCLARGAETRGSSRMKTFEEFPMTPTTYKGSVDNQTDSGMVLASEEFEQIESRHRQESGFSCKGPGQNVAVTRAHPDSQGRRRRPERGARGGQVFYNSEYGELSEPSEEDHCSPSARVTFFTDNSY
Chain of Tyrosine-protein kinase Fgr (Homo sapiens) (P09769 2-529 limits assumed): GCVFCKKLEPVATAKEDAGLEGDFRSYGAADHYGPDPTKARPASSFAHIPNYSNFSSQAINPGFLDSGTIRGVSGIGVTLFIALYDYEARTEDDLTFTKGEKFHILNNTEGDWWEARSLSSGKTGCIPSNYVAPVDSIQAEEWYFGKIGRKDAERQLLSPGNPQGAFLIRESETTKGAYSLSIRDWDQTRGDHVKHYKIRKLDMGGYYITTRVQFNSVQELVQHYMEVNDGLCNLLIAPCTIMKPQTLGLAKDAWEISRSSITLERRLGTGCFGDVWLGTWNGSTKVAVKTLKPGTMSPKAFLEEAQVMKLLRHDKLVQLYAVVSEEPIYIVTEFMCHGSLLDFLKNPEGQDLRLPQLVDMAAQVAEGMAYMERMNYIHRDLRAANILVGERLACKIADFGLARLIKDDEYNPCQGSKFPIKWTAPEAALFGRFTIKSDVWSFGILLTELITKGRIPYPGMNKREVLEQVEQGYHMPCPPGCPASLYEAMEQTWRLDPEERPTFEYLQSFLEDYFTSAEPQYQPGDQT
Chain of Calcium/calmodulin-dependent protein kinase type 1G (Homo sapiens) (Q96NX5 whole entry): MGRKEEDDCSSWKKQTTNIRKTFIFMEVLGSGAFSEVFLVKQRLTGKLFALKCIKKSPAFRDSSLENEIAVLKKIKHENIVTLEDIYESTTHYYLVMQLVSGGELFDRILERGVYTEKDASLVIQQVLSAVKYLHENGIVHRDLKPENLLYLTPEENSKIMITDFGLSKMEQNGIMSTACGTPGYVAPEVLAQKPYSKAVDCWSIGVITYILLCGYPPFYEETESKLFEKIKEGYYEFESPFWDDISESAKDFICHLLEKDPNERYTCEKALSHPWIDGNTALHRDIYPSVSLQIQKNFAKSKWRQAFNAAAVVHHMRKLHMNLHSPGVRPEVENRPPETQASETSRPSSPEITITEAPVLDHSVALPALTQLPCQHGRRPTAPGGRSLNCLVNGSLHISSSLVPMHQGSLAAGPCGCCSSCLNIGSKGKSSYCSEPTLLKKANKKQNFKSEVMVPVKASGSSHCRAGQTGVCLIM
Chain of CDK3/Cyclin E (Homo sapiens) (P24864 whole entry, looked up): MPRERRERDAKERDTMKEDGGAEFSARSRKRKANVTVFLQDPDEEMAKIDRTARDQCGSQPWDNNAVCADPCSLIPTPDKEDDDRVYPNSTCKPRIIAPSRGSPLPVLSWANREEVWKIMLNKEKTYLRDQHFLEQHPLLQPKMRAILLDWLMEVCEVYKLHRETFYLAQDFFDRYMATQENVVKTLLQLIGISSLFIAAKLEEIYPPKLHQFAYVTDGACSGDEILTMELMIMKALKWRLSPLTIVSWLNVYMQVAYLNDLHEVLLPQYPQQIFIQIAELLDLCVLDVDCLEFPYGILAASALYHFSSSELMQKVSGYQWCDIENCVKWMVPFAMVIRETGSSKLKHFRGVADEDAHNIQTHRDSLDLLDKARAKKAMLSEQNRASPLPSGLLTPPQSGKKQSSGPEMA
Chain of CDK3/Cyclin E (Homo sapiens) (Q00526 whole entry, looked up): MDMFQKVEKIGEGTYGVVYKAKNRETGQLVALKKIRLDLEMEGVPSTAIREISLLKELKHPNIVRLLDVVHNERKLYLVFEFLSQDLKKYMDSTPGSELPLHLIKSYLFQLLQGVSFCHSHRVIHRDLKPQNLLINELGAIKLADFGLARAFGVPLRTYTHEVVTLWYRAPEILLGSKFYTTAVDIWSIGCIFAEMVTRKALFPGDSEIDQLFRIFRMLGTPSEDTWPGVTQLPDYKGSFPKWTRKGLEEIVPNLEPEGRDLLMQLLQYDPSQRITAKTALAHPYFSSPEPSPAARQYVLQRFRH

inhibition [1] [%] | inhibition [2] [%] | inhibition [3] [%] | inhibition [4] [%] | inhibition [5] [%] | inhibition [6] [%] | inhibition [7] [%] | inhibition [8] [%] | inhibition [9] [%] | inhibition [10] [%] | SMILES
100 | 37.4 | 10.6 | 99.5 | 100 | 47.5 | 60 | 66.6 | 1.08 | 97 | CS(=O)(=O)c1cccc(Nc2nccc(-c3sc(N4CCOCC4)nc3-c3cccc(NS(=O)(=O)c4c(F)cccc4F)c3)n2)c1
41.5 | 11.5 | 7.46 | 13.7 | 67.5 | 18.8 | 0.29 | 8.82 | 3.38 | -9.28 | COCCNC(=O)c1ccc2c(c1)nc(-c1cnc(-c3ccc(Cl)cc3)[nH]1)n2CCOC
94.8 | 77.8 | 64.5 | 98.9 | 90.7 | 96.5 | 49.5 | 20.9 | 3.41 | 96.7 | CC(C)(C)c1cc(NC(=O)Nc2ccc(Oc3ccncc3)cc2)no1
